Read-outs that look alike come from different tables or passages of the source.
Columns and labels:
apo-caspase-6 = target: T1, apo-caspase-6 (Homo sapiens, UniProt P55212); assay: SPR binding to apo-caspase-6; settings: Rmax locked to control compound
T1 construct: Residues 24-179 and 194-293 from caspase-6 cDNA (Origene) were cloned into pET-24b and pET-23b vectors; 6x histidine tag; made in house; host or cells: E. coli (as above), BirA co-expressed
T1 sequence (P55212 24-179): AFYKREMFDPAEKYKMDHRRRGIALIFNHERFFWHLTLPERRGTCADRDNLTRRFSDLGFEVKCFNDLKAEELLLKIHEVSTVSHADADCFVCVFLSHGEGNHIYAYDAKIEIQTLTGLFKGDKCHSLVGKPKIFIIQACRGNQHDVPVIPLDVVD
T1 sequence (P55212 194-293): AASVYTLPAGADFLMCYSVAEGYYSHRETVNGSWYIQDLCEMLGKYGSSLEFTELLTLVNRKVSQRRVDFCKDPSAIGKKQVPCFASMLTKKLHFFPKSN
Description: For SPR experiments, caspase-6 was cloned to include a C-terminal avi-tag (Avidity) and expressed and purified as above, except that biotin ligase (BirA) was co-expressed during fermentation. […] Avi-tagged zymogen C163A-caspase-6 was processed to mature C163A-caspase-6 by the addition of active caspase-3 and caspase-6. Chip preparation for neutravidin-based capture was performed as previously described using either a Biacore T100 or Biacore 3000 instrument (GE Healthcare). Running buffer was 50 mM HEPES pH 7.2, 100 mM MgSO4, 30 mM NaCl, 1 mM TCEP, 0.01% Triton X-100, 1% PEG-3350, 2.5% DMSO, and the instrument was set for 20 degrees C. After capture one flow cell of apo-caspase-6 was exposed to a continuous flow of 20 µM VEID-FMK. A rise in signal could be detected for the binding/reacting of the VEID-FMK and exposure was continued until no additional rise in response was observed (∼45 minutes) indicating full saturation of all binding sites. There was no observed decrease in signal upon washing, indicating the reaction was irreversible. […] Fluorescent substrates were too limiting in solubility and quantity to be added to the running buffer, so substrates were mixed at a concentration equal to their Kmapp with 3 and injected together over the indicated surfaces. […]

caspase-6 = target: T2, caspase-6 (Homo sapiens, UniProt P55212); assay: Caspase-6 enzymatic assay with fluorogenic tetrapeptide substrates; assay type: biochemical
T2 construct: Residues 24-179 and 194-293 from caspase-6 cDNA (Origene) were cloned into pET-24b and pET-23b vectors; 6x histidine tag (C); made in house; host or cells: E. coli BL21 (DE3) pLysS
T2 sequence (P55212 24-179): T1 sequence (P55212 24-179)
T2 sequence (P55212 194-293): T1 sequence (P55212 194-293)
Description: The in vitro enzymatic caspase assays utilize synthetic tetrapeptide substrates labeled with the fluorophores Rhodamine110 (R110) or 7-amino-4-methylcoumarin (AMC) at the P1 aspartic acid (Asp) residue. All assays were performed in 384-well plates in 12 µL reaction volume consisting of enzyme, substrate and indicated concentration of inhibitor or DMSO in assay buffer (50 mM HEPES [pH 7.0], 25 mM MgSO4, 0.5 mM EGTA, 5 mM Glutathione (GSH), 0.01% Triton X-100 containing 0.1% Bovine Gamma Globulin (BGG)). All inhibitors were serially diluted in 100% DMSO prior to dilution in assay buffer and transfer to assay plate. DMSO was diluted into assay buffer similarly for blank wells (no enzyme or compound) and final DMSO concentration was 1%. The concentration of caspase-6 used in enzymatic reactions typically varied between 1–10 nM depending on substrate used. Unless otherwise indicated, substrate concentration was within 3-fold of the determined Kmapparent (5 µM (Ac-VEID)2R110 [Kmapp = 8 µM]; 5 µM (Ac-DEVD)2R110 [Kmapp = 8 µM]; 25 µM (Ac-IETD)2R110 [Kmapp = 70 µM]; 25 µM (Ac-WEHD)2R110 [Kmapp = 70 µM]; 10µM Ac-VEID-AMC [Kmapp = 16µM]; 5 µM Ac-VEID-R110 [Kmapp = 8 µM]). The concentration of substrate utilized in selectivity assays for each caspase isoform was also held as close to Kmapparent as reasonably achievable (Table S1). Caspases-3 and -7 were expressed and purified at Genentech as the catalytic domain consisting of large p20 and small p10 subunits without prodomain. For all caspase enzymatic assays, the reaction plate was incubated at room temperature for 40 minutes and then read on Envision (Perkin Elmer) fluorescent plate reader at excitation/emission wavelengths of 485/535 nm (R110) or 350/450 nm (AMC). […]
The endpoint fluorescent emission (RFU) in each well was plotted as a function of inhibitor concentration and the 50% inhibition (IC50) values were determined using a nonlinear least squares fit of the data to a four parameter equation using Prism 5.0 software (GraphPad Software, San Diego, CA). […] Ki values for Compound 3 were calculated using this equation: Ki = IC50/(Km/[S] +1). Concentration-response curves for each inhibitor were normalized to zero and 100% based on no enzyme or DMSO control, respectively. For steady-state kinetic analysis, initial reaction velocity (RFU/minute) was plotted against substrate concentration at each inhibitor concentration and the data was fit to a hyperbolic Michaelis-Menten model using Prism 5.0 software. Km (µM) and Vmax (RFU/minute) were calculated by using this equation: v = Vmax • [S]/Km+[S] where v = initial reaction velocity at indicated substrate concentration (S). Vmax values were normalized to zero and 100% based on no enzyme or DMSO control, respectively.
Expression and purification of caspase-6 for enzymatic assays: Human caspase-6 was expressed as the mature enzyme using a split construct. Residues 24-179 and 194-293 from caspase-6 cDNA (Origene) were cloned into pET-24b and pET-23b vectors (Novagen) respectively; the small subunit contained a C-terminal 6x histidine tag. Vectors were cotransfected into the E.coli strain BL21 (DE3) pLysS (Stratagene). Cells were grown from a single colony in 6L of 2xYT supplemented with ampicillin and kanamycin at 37 °C to an OD of ~ 0.5 and were subsequently cooled to 16 °C before overnight induction with 0.2 mM IPTG. Cells were harvested by centrifugation, resuspended in 100 mM NaCl, 100 mM Tris, pH 8.0, and lysed.

COc1ccc(-c2cc(C(=O)N[C@@H](CO)Cc3cccc(C#N)c3)co2)cc1OC [Compound 3]
Kd (apo-caspase-6): 192 µM | Ki (caspase-6; (VEID)2R110 substrate, calculated from IC50): 0.004 µM | fold weaker with (DEVD)2R110 than with (VEID)2R110 substrate (caspase-6; caspase-6): ~44 fold | IC50 (caspase-6; caspase-6, (DEVD)2R110 substrate, read-out: IC50): 0.481 µM | IC50 (caspase-6; caspase-6, (IETD)2R110 substrate, read-out: inhibition of (IETD)2R110 cleavage): ~100 µM | binding efficiency index (BEI; pIC50/molecular weight) (caspase-6; caspase-6, (VEID)2R110): 19.7 | IC50 (caspase-6; caspase-6, (WEHD)2R110 substrate, not inhibited up to this concentration, read-out: inhibition of (WEHD)2R110 cleavage): > 100 µM | IC50 (caspase-6; caspase-6, monovalent VEID-AMC substrate, read-out: IC50): 14 µM | IC50 (caspase-6; caspase-6 cleavage of (VEID)2R110 substrate, read-out: IC50 (potency)): 0.011 µM | selectivity for caspase-6 cleavage of (VEID)2R110 compared to other caspase family members tested (caspase-6; versus caspases-3 and -7): near absolute selectivity

From article PMC3515450, “Mechanistic and Structural Understanding of Uncompetitive Inhibitors of Caspase-6” (PLoS ONE, 2012)
